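The compound was tested at five concentrations on cells cultured in 96-well plates, with a 48-hour exposure period. TGI marks complete inhibition of growth.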
Columns and labels:
Experiment in all cases: DTP human tumour cell line panel, 48 h
[1] = tested on: PC-3 prostate
[2] = tested on: MDA-MB-231 breast
[3] = tested on: OVCAR-4 ovarian
[4] = tested on: SR leukemia
[5] = tested on: A549 NSCLC
[6] = tested on: SF-268 CNS
[7] = tested on: COLO 205 colon
[8] = tested on: HOP-62 NSCLC
[9] = tested on: MDA-MB-435
[10] = tested on: OVCAR-3 ovarian
[11] = tested on: DU-145 prostate
[12] = tested on: LOX IMVI melanoma
[13] = tested on: U251 CNS
[14] = tested on: SNB-75 CNS
[15] = tested on: SK-MEL-5 melanoma
[16] = tested on: MCF7 breast
[17] = tested on: SN12C renal
[18] = tested on: SW-620 colon
[19] = tested on: IGROV1 ovarian
[20] = tested on: EKVX NSCLC
[21] = tested on: HOP-92 NSCLC
[22] = tested on: MDA-N
[23] = tested on: NCI-H23 lung
[24] = tested on: NCI/ADR-RES ovarian
[25] = tested on: SF-295 CNS
[26] = tested on: HCC-2998 colon
[27] = tested on: TK-10 renal
[28] = tested on: ACHN renal
[29] = tested on: OVCAR-8 ovarian
[30] = tested on: K-562 leukemia
[31] = tested on: BT-549 breast
[32] = tested on: CCRF-CEM leukemia
[33] = tested on: M14 melanoma
[34] = tested on: 786-0 renal
[35] = tested on: OVCAR-5 ovarian
[36] = tested on: T-47D breast
[37] = tested on: HT29 colon
[38] = tested on: MOLT-4 leukemia
[39] = tested on: NCI-H460 lung
[40] = tested on: SNB-19 CNS
[41] = tested on: HL-60(TB) leukemia
[42] = tested on: UO-31 renal
[43] = tested on: NCI-H226 lung
[44] = tested on: SK-OV-3 ovarian
[45] = tested on: HCT-15 colon
[46] = tested on: RPMI-8226 leukemia
[47] = tested on: UACC-62 melanoma
[48] = tested on: MALME-3M melanoma
[49] = tested on: A498 renal
[50] = tested on: SK-MEL-28 melanoma
[51] = tested on: HCT-116 colon

Which TGI [1] does the source give for `COC(=O)C1(Cc2cccc(Cl)c2)CCCCCCN1C(=O)c1ccccc1` (stereo unspecified) here?
The TGI was 17.4 µM.

And the TGI [2]?
The TGI was 29 µM.

And the TGI [3]?
Its TGI is 50.6 µM.

And the TGI [4]?
Its TGI is 39.8 µM.

And the TGI [5]?
Its TGI is 33.6 µM.

And the TGI [6]?
Its TGI is 42.1 µM.

What about the TGI [7] of the same molecule?
Its TGI is 38.7 µM.

What about the TGI [8] of the same molecule?
The TGI was 29 µM.

And the TGI [9]?
The TGI was 51.8 µM.

And the TGI [10]?
The TGI was 20.4 µM.

What about the TGI [11] of the same molecule?
The TGI was 37.7 µM.

What about the TGI [12] of the same molecule?
The TGI was 32.8 µM.

And the TGI [13]?
Its TGI is 29.7 µM.

What about the TGI [14] of the same molecule?
Its TGI is 29.6 µM.

What about the TGI [15] of the same molecule?
Its TGI is 26.6 µM.

And the TGI [16]?
Its TGI is 26.6 µM.

And the TGI [17]?
Its TGI is 28.1 µM.

What about the TGI [18] of the same molecule?
The TGI was 36 µM.

What about the TGI [19] of the same molecule?
The TGI was 45.5 µM.

What about the TGI [20] of the same molecule?
Its TGI is 26.8 µM.

What about the TGI [21] of the same molecule?
Its TGI is 35.6 µM.

And the TGI [22]?
The TGI was 30.4 µM.

And the TGI [23]?
Its TGI is 51.1 µM.

What about the TGI [24] of the same molecule?
The TGI was 54.1 µM.

And the TGI [25]?
Its TGI is 22.1 µM.

And the TGI [26]?
The TGI was 27.5 µM.

What about the TGI [27] of the same molecule?
The TGI was 29.5 µM.

What about the TGI [28] of the same molecule?
The TGI was 30 µM.

And the TGI [29]?
The TGI was 33.4 µM.

What about the TGI [30] of the same molecule?
Its TGI is 59.8 µM.

And the TGI [31]?
Its TGI is 40.8 µM.

And the TGI [32]?
The TGI was 31.6 µM.

And the TGI [33]?
Its TGI is 45 µM.

What about the TGI [34] of the same molecule?
The TGI was 26.3 µM.

What about the TGI [35] of the same molecule?
Its TGI is 44.7 µM.

What about the TGI [36] of the same molecule?
The TGI was 37.4 µM.

What about the TGI [37] of the same molecule?
Its TGI is 32.1 µM.

And the TGI [38]?
The TGI was 32.1 µM.

And the TGI [39]?
Its TGI is 33.8 µM.

And the TGI [40]?
The TGI was 31.2 µM.

What about the TGI [41] of the same molecule?
Its TGI is 34.3 µM.

What about the TGI [42] of the same molecule?
The TGI was 29.3 µM.

And the TGI [43]?
Its TGI is 48.8 µM.

And the TGI [44]?
Its TGI is 42.8 µM.

And the TGI [45]?
Its TGI is 25.3 µM.

What about the TGI [46] of the same molecule?
The TGI was 32.2 µM.

What about the TGI [47] of the same molecule?
Its TGI is 28.5 µM.

And the TGI [48]?
Its TGI is 25.3 µM.

What about the TGI [49] of the same molecule?
Its TGI is 29 µM.

And the TGI [50]?
Its TGI is 31.7 µM.

What about the TGI [51] of the same molecule?
Its TGI is 29.7 µM.

— PubChem BioAssay (NCI)
